Paper PMC3961306, “Comparison of the Cancer Gene Targeting and Biochemical Selectivities of All Targeted Kinase Inhibitors Approved for Clinical Use” (PLoS ONE, 2014)

What was measured:
Experiment in all cases: Kinase profiling in a biochemical assay panel (mobility shift assays and ELISA), %-inhibition at 1 μM; selectivity entropy
[1] = molecular target: panel of more than 300 wild-type and mutant kinases (313 kinase panel) (Homo sapiens, UniProt P17612)
[2] = molecular target: panel of more than 300 wild-type and mutant kinases (313 kinase panel) (Homo sapiens, UniProt P54646)
[3] = molecular target: panel of more than 300 wild-type and mutant kinases (313 kinase panel) (Homo sapiens, UniProt P06213); conditions: kinase INSR; compound at 1 μM
[4] = molecular target: panel of more than 300 wild-type and mutant kinases (313 kinase panel) (Homo sapiens, UniProt P29376); conditions: kinase LTK; compound at 1 μM
[5] = molecular target: panel of more than 300 wild-type and mutant kinases (313 kinase panel) (Homo sapiens, UniProt P22455, V550L); conditions: kinase FGFR4(V550L); compound at 1 μM
[6] = molecular target: T1, panel of more than 300 wild-type and mutant kinases (313 kinase panel) (Homo sapiens, UniProt P36888)
T1 sequence (P36888 27-993): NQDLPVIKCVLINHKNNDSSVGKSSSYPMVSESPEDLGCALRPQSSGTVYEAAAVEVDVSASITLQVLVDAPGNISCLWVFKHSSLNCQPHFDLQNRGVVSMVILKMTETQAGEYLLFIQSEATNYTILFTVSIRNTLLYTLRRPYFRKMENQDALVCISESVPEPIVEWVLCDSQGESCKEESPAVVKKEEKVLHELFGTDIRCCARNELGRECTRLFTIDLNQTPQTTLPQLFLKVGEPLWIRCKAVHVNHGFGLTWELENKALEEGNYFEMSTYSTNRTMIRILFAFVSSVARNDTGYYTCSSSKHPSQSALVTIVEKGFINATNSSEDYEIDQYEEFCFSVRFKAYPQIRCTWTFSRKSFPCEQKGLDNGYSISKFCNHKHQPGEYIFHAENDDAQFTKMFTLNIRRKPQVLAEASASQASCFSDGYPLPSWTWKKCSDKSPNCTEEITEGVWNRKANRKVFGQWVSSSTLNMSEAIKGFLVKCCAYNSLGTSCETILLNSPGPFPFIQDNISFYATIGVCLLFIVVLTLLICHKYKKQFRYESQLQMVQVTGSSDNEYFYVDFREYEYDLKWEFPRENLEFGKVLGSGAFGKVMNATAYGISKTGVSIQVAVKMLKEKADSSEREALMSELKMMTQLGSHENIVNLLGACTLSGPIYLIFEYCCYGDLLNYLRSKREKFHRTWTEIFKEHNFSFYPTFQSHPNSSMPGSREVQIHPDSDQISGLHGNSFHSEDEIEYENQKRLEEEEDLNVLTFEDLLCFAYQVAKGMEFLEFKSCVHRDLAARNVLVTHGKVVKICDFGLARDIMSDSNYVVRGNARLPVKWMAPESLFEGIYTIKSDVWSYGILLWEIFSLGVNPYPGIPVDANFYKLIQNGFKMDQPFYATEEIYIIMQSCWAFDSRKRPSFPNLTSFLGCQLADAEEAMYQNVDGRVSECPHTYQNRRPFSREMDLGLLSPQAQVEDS

[7] = molecular target: panel of more than 300 wild-type and mutant kinases (313 kinase panel) (Homo sapiens, UniProt P08581, Y1235D); conditions: kinase MET(Y1235D); compound at 1 μM
[8] = molecular target: panel of more than 300 wild-type and mutant kinases (313 kinase panel) (Homo sapiens, UniProt P07949, Y791F)
[9] = molecular target: panel of more than 300 wild-type and mutant kinases (313 kinase panel) (Homo sapiens, UniProt Q9Y6E0); conditions: kinase MST3; 1 μM
[10] = molecular target: panel of more than 300 wild-type and mutant kinases (313 kinase panel) (Homo sapiens, UniProt P29317)
[11] = kinase AMPKα2/β1/γ1, 1 μM compound

panel of more than 300 wild-type and mutant kinases (313 kinase panel) (Homo sapiens, UniProt P06213), sequence (P06213 28-1382, stated change not applied): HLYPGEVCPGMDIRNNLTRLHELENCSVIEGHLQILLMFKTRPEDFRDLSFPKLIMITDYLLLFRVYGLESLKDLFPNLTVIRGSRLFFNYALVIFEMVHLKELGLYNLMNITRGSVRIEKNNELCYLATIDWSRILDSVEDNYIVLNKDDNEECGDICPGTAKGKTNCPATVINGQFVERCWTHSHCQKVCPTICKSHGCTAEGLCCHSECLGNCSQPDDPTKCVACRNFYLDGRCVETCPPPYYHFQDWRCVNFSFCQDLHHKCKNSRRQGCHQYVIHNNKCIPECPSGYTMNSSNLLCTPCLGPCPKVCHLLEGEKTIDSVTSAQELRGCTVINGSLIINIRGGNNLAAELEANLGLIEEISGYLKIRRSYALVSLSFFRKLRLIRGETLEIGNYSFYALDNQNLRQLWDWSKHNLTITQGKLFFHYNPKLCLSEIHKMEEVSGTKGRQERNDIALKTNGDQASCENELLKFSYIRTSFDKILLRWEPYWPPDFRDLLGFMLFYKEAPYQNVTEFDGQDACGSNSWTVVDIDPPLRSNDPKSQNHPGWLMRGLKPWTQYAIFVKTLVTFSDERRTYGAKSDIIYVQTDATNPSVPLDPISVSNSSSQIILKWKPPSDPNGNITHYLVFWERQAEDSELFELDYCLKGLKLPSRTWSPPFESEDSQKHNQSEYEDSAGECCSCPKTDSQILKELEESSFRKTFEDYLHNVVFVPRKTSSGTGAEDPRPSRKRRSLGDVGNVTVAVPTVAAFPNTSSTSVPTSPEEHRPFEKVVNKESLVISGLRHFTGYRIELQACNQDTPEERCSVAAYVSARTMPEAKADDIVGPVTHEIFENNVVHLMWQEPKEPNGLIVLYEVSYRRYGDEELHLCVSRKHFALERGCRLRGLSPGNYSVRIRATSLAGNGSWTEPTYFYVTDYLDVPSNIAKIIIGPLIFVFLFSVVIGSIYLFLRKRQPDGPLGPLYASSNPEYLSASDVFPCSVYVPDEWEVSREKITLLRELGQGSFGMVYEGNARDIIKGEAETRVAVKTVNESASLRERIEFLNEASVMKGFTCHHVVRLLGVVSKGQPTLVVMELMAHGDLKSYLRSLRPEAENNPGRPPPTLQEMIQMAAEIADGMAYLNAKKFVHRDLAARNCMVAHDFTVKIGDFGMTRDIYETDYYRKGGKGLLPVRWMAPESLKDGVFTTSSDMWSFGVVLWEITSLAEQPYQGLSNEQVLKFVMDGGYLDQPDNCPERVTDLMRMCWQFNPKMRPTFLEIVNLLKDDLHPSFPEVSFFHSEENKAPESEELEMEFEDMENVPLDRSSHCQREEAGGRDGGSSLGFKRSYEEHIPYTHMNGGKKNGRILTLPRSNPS
panel of more than 300 wild-type and mutant kinases (313 kinase panel) (Homo sapiens, UniProt P07949, Y791F), sequence (P07949 29-1114 Y791F): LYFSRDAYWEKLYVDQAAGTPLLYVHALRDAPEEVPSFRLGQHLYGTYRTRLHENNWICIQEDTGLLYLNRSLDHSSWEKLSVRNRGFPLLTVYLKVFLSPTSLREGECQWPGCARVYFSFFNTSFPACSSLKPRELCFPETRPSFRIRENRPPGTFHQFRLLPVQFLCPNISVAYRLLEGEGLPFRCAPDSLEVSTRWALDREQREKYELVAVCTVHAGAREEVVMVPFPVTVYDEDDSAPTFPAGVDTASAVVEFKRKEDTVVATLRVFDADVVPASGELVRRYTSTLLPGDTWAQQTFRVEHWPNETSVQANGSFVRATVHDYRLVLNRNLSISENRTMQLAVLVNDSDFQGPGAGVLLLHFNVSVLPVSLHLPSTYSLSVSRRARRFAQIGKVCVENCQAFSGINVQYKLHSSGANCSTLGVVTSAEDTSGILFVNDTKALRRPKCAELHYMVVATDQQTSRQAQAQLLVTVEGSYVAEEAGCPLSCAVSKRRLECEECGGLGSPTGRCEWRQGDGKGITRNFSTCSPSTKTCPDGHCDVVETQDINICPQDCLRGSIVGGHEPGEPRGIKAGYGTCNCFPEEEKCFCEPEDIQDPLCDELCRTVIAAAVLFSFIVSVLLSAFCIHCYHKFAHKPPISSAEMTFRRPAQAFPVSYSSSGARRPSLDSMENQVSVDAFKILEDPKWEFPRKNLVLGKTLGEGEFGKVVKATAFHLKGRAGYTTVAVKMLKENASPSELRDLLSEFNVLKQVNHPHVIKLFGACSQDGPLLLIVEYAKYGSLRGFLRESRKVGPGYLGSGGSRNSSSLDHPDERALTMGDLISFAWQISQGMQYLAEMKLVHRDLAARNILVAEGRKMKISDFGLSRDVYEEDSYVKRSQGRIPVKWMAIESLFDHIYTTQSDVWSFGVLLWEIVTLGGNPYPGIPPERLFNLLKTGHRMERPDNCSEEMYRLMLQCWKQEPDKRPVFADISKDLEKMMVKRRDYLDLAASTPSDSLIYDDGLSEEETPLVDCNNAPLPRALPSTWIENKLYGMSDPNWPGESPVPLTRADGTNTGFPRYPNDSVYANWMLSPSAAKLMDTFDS
panel of more than 300 wild-type and mutant kinases (313 kinase panel) (Homo sapiens, UniProt P22455, V550L), sequence (P22455 22-802 V550L): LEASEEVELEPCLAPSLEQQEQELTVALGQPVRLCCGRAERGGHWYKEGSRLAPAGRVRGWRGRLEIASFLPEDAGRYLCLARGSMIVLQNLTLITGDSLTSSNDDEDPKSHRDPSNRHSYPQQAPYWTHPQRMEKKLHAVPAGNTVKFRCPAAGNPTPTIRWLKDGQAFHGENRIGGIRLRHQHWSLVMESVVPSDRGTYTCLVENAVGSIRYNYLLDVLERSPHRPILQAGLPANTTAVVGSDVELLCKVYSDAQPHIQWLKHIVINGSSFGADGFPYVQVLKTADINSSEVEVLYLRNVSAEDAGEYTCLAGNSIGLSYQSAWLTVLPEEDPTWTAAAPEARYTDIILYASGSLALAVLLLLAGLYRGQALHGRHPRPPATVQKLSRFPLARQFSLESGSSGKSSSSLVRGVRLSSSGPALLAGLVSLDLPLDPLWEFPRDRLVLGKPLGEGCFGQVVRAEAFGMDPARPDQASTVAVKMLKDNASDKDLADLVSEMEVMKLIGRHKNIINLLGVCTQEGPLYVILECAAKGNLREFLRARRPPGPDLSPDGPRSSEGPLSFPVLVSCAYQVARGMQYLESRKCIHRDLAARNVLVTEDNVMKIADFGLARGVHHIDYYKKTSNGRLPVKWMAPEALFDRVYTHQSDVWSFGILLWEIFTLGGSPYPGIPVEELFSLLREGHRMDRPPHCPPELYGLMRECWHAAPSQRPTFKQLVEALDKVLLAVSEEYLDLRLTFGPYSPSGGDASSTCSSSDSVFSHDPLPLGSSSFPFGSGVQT
panel of more than 300 wild-type and mutant kinases (313 kinase panel) (Homo sapiens, UniProt P08581, Y1235D), sequence (P08581 25-1390 Y1235D): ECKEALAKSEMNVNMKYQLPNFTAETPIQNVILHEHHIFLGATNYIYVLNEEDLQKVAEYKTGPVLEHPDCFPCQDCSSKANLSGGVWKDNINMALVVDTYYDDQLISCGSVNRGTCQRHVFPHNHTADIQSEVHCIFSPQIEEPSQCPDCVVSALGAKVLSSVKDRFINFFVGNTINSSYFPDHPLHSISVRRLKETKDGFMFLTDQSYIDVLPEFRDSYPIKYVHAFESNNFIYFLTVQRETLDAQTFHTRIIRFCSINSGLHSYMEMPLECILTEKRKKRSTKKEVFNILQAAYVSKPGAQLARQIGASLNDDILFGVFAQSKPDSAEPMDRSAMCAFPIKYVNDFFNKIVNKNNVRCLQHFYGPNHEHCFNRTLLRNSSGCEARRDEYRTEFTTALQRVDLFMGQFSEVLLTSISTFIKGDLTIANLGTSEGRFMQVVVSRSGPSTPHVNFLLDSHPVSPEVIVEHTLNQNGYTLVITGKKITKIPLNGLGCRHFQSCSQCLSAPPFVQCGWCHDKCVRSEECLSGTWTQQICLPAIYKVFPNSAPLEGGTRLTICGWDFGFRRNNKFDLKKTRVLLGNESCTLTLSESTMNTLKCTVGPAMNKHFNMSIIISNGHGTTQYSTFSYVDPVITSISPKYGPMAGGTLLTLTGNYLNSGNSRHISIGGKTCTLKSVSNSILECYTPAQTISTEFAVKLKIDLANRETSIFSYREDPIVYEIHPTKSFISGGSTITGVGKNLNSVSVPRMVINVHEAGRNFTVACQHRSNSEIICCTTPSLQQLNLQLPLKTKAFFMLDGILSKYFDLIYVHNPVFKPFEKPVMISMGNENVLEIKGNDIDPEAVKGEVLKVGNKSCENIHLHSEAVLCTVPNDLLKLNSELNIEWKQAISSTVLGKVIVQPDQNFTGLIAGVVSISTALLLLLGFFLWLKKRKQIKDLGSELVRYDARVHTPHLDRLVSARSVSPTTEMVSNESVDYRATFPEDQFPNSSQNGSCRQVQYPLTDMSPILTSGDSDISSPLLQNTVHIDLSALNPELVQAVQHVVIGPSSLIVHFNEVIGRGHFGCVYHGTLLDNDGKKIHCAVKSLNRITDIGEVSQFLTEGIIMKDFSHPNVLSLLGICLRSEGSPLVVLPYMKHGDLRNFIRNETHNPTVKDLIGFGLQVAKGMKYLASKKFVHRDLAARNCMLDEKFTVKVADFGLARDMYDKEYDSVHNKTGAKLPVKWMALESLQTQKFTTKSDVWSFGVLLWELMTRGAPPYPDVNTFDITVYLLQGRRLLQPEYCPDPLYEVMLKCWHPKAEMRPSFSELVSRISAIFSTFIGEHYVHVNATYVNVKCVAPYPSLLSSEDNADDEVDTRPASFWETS

## CC(=O)Nc1cccc(-n2c(=O)n(C3CC3)c(=O)c3c(Nc4ccc(I)cc4F)n(C)c(=O)c(C)c32)c1 [trametinib]
[1]; kinase PKACα, 1 μM
  %-inhibition of PKACα: 8.52%
[2]; [11]
  %-inhibition, AMPKα2/β1/γ1: 1.21%
[3]
  %-inhibition of INSR: -30%
[4]
  %-inhibition of LTK: -7%
[5]
  %-inhibition of FGFR4(V550L): -0.155%
[6]; kinase FLT3, compound at 1 μM
  %-inhibition of FLT3: 20%
[7]
  %-inhibition of MET(Y1235D): -1.5%
[8]; kinase RET(Y791F), 1 μM
  %-inhibition of RET(Y791F): -1.71%
[9]
  %-inhibition of MST3: 1.75%
[10]; kinase EPHA2, compound at 1 μM
  %-inhibition of EPHA2: -8.53%

## COc1cc2c(Nc3ccc(Br)cc3F)ncnc2cc1OCC1CCN(C)CC1 [vandetanib]
[1]; kinase PKACα, 1 μM
  %-inhibition of PKACα: 1.29%
[2]; [11]
  %-inhibition, AMPKα2/β1/γ1: 4.74%
[3]
  %-inhibition of INSR: 3.63%
[5]
  %-inhibition of FGFR4(V550L): -4.72%
[6]; kinase FLT3, compound at 1 μM
  %-inhibition of FLT3: 90%
[9]
  %-inhibition of MST3: 7%
[10]; kinase EPHA2, compound at 1 μM
  %-inhibition of EPHA2: 86%

## CS(=O)(=O)CCNCc1ccc(-c2ccc3ncnc(Nc4ccc(OCc5cccc(F)c5)c(Cl)c4)c3c2)o1 [lapatinib]
[1]; kinase PKACα, 1 μM
  %-inhibition of PKACα: 0.663%
[2]; 1 µM
  %-inhibition, AMPKα2/β1/γ1: -7.39%
[3]
  %-inhibition of INSR: -1.26%
[4]
  %-inhibition of LTK: 4.66%
[6]; kinase FLT3, compound at 1 μM
  %-inhibition of FLT3: -3.74%
[7]
  %-inhibition of MET(Y1235D): 2%
[8]; 1 µM
  %-inhibition of RET(Y791F): -5%
[9]
  %-inhibition of MST3: -1.84%
[10]; kinase EPHA2, compound at 1 μM
  %-inhibition of EPHA2: 1.22%

## CCN(CC)CCNC(=O)c1c(C)[nH]c(/C=C2\C(=O)Nc3ccc(F)cc32)c1C [sunitinib]
[4]
  %-inhibition of LTK: 81%

## O=S(=O)(c1cccc2cnccc12)N1CCCNCC1 [fasudil]
[2]; [11]
  %-inhibition, AMPKα2/β1/γ1: 5%
[3]
  %-inhibition of INSR: -11%
[4]
  %-inhibition of LTK: -3.76%
[6]; kinase FLT3, compound at 1 μM
  %-inhibition of FLT3: 22%
[7]
  %-inhibition of MET(Y1235D): -2.65%
[8]; kinase RET(Y791F), 1 μM
  %-inhibition of RET(Y791F): 1%
[9]
  %-inhibition of MST3: -1.29%
[10]; kinase EPHA2, compound at 1 μM
  %-inhibition of EPHA2: -7%

## C[C@@H](Oc1cc(-c2cnn(C3CCNCC3)c2)cnc1N)c1c(Cl)ccc(F)c1Cl [crizotinib]
[1]; kinase PKACα, 1 μM
  %-inhibition of PKACα: -6%
[2]; [11]
  %-inhibition, AMPKα2/β1/γ1: 27%
[5]
  %-inhibition of FGFR4(V550L): 0.45%
[9]
  %-inhibition of MST3: 11%

## Cc1cn(-c2cc(NC(=O)c3ccc(C)c(Nc4nccc(-c5cccnc5)n4)c3)cc(C(F)(F)F)c2)cn1 [nilotinib]
[1]; 1 µM
  %-inhibition of PKACα: 3.31%
[2]; [11]
  %-inhibition, AMPKα2/β1/γ1: -0.54%
[3]
  %-inhibition of INSR: -8%
[4]
  %-inhibition of LTK: 7.51%
[6]; 1 µM
  %-inhibition of FLT3: 60%
[7]
  %-inhibition of MET(Y1235D): -4.56%
[8]; 1 µM
  %-inhibition of RET(Y791F): 16%
[9]
  %-inhibition of MST3: 0.797%
[10]; 1 µM
  %-inhibition of EPHA2: 95%

## Cc1ccc(Nc2nccc(N(C)c3ccc4c(C)n(C)nc4c3)n2)cc1S(N)(=O)=O [pazopanib]
[1]; kinase PKACα, 1 μM
  %-inhibition of PKACα: 2%
[2]; [11]
  %-inhibition, AMPKα2/β1/γ1: 0.826%
[3]
  %-inhibition of INSR: 22%
[4]
  %-inhibition of LTK: 27%
[8]; kinase RET(Y791F), 1 μM
  %-inhibition of RET(Y791F): 94%
[9]
  %-inhibition of MST3: -4.48%
[10]; kinase EPHA2, compound at 1 μM
  %-inhibition of EPHA2: 15%

## COc1cc2nccc(Oc3ccc(NC(=O)C4(C(=O)Nc5ccc(F)cc5)CC4)cc3)c2cc1OC [cabozantinib]
[1]; kinase PKACα, 1 μM
  %-inhibition of PKACα: -4.67%
[2]; [11]
  %-inhibition, AMPKα2/β1/γ1: 1.75%
[3]
  %-inhibition of INSR: 35%
[4]
  %-inhibition of LTK: 61%
[5]
  %-inhibition of FGFR4(V550L): -1.35%
[6]; kinase FLT3, compound at 1 μM
  %-inhibition of FLT3: 91%
[9]
  %-inhibition of MST3: 0.432%
[10]; kinase EPHA2, compound at 1 μM
  %-inhibition of EPHA2: 98%
